Source: US20220397566A1, “GAMMA-SECRETASE STABILIZING COMPOUND SCREENING ASSAY” (VIB VZW, priority 2019, published 2022)

Key:
Type in all cases: cell-based, mouse
[1] = target: T1, g-secretase complex (Homo sapiens, UniProt P49768); assay: Cadherin CTF and APP CTF accumulation (Western blot); settings: FIG. 7 Western blot
T1 construct: expressed in transfected cells
Protocol: Second, of all these compounds, the inhibitory action on g-secretase activity was determined by quantifying the production of the C-terminal fragments (CTF) of Cadherin and APP. Both Cadherin-CTF and APP-CTF accumulate when the enzymatic activity of the g-secretase complex is inhibited. As can be appreciated from the Western blot in FIG. 7, all tested g-secretase inhibitors (C1, C2, C4 and C8) induced the level of Cadherin CTF and APP CTF in contrast to the negative control and the g-secretase stabilizers.
(§1) Protein concentrations were determined by the Bio-Rad DC protein assay (Bio-Rad). Samples were separated by SDS-PAGE (4-12% Bis-Tris NuPAGE gels in MES running buffer (ThermoFisher Scientific) and transferred onto nitrocellulose membranes (ThermoFisher Scientific). After blocking in 5% non-fat milk, membranes were incubated with primary antibody (4° C., overnight) followed by washing and incubation with horseradish peroxidase (HRP)-conjugated secondary antibodies (1 h, room temperature). After final washing, immunodetection was done using enhanced chemiluminescence (Western Lightning-Plus ECL, PerkinElmer), and immunoreactive protein bands were digitally captured and quantified on a Fuji MiniLAS 3000 imager (Fuji, Dusseldorf, Germany) using Aida Image Analyzer software (Raytest, Germany). Data are represented as mean±SEM of at least three independent experiments.

[2] = target: T2, PSEN1/g-secretase complex (Homo sapiens, UniProt P49768); assay: Relocation of GFP-PSEN1/g-secretase to LAMP1-positive late endosomes (confocal immunofluorescence)
T2 construct: expressed in transfected cells

[3] = test system: transferrin receptor; assay: Cell surface biotinylation internalization assay, transferrin receptor; settings: 16 h time point, DAPT 1 μM
Protocol: All reagents, except otherwise stated, were kept on ice. Cells (450.000 cells for 1 h kinetic and 300.000 cells for 16 h) were plated on 6-cm dishes. 48 h after plating, cells were placed on ice, washed in PBS (pH 8) and next incubated in PBS (pH 8) supplemented with 0.25 mg/ml sulfo-NHS-SS-Biotin (Pierce) (10 min at 4° C.). Excess of biotin was washed out with PBS and cells were incubated in quench buffer (0.5% BSA, 100 mM Glycine in PBS) for 15 min at 4° C. Cells were then washed with PBS and incubated at 37° C. in complete pre-warmed medium (with or without DAPT 1 μM) for the appropriate time or kept at 4° C. as a control. Endocytosis was quickly stopped by placing the dishes back on ice and washing the cells with ice-cold PBS. Remaining biotin at the cell surface was cleaved off by incubating the cells twice in PBS containing 100 mM 2-sodium-2-mercaptoethanesulfonate (Sigma) as a reducing agent (15 min at 4° C.). […] Total protein was measured and biotinylated proteins were pulled down from equal amounts of extracts using streptavidin Sepharose beads (Pierce) (4° C., overnight on a rotation wheel). […] To evaluate the internalized pool for each protein to total cell surface, the (R37-R0)/NR*100 ratio for each time point were quantified. For the 16 h time point, the R37/NR*100 were quantified for each condition. […]

[4] = target: T3, g-secretase subunits (Homo sapiens, UniProt P49768); assay: Expression of g-secretase subunits (Western blot); settings: 1 μM DAPT; data not shown
T3 construct: expressed in transfected cells
Protocol: First, in the PSEN1 KO mouse embryonic fibroblasts (MEFs) rescued with EGFP-PSEN1 (see Example 1) the expression of the g-secretase subunits was tested and found not affected by administering any of the 12 compounds, including DAPT that was used as positive control (data not shown).
as §1

With `C[C@H](NC(=O)Cc1cc(F)cc(F)c1)C(=O)N[C@H](C(=O)OC(C)(C)C)c1ccccc1` [DAPT, N—[N-(3,5-difluorophenacetyl)-L-alanyl]-S-phenylglycine t-butyl ester] the “level of APP CTF” value [1] was “accumulate”, the “level of Cadherin CTF” value [1] was “accumulate” and the “co-distribution of EGFP-PSEN1 with anti-LBPA immunoreactivity (late endosomes)” value ([2]; PSEN1 KO MEFs rescued with GFP-PSEN1, 1 μM, 16 h) was “even more strongly co-distributed with anti-LBPA immunoreactivity”. The “relocation of EGFP-PSEN1 to LAMP1-positive organelles” value ([2]; single PSEN1 KO MEFs stably transduced with EGFP-PSEN1, data not shown) was “Identical observations”, the “co-accumulation of EGFP-PSEN1 and NCT-SNAP in LAMP1-positive organelles” value ([2]; triple KO MEFs rescued with EGFP-PSEN1 and NCT-SNAP, 1 μM, 16 h) was “co-accumulate in LAMP1-positive organelles” and the “biotinylated transferrin receptor pulled down” value [3] was “no differences were found”. The “steady state of PSEN1 or PSEN2 protein levels” value [4] was “no measurable effect”.
